30 compounds from ChEMBL document CHEMBL1909536, “7-Oxopyrrolopyridine-derived DPP4 inhibitors-mitigation of CYP and hERG liabilities via introduction of polar functionalities in the active site” (Bioorg Med Chem Lett, 2011) can be followed below.

For data set [1], the target named is T1, Cytochrome P450 3A4 (Homo sapiens, UniProt P08684). The experiment in a line: Inhibition of CYP3A4 up to 40 uM. The class given is ADME.
In data set [2] the target is T1, Cytochrome P450 3A4. Nature of the data set: Inhibition of CYP3A4 in presence of the substrate 7-bezyloxy-4-trifluoromethyl coumarin. The class given is ADME.
For a further data set, the target named is hERG (KCNH2) (Homo sapiens, UniProt Q12809). The experiment in a line: (§1) Inhibition of human ERG at 10 uM by patch clamp assay. The settings on record: INH. In general terms: The patch-clamp technique gives a direct electrical read-out from membranes.
Chain of hERG (KCNH2) (Q12809 whole entry): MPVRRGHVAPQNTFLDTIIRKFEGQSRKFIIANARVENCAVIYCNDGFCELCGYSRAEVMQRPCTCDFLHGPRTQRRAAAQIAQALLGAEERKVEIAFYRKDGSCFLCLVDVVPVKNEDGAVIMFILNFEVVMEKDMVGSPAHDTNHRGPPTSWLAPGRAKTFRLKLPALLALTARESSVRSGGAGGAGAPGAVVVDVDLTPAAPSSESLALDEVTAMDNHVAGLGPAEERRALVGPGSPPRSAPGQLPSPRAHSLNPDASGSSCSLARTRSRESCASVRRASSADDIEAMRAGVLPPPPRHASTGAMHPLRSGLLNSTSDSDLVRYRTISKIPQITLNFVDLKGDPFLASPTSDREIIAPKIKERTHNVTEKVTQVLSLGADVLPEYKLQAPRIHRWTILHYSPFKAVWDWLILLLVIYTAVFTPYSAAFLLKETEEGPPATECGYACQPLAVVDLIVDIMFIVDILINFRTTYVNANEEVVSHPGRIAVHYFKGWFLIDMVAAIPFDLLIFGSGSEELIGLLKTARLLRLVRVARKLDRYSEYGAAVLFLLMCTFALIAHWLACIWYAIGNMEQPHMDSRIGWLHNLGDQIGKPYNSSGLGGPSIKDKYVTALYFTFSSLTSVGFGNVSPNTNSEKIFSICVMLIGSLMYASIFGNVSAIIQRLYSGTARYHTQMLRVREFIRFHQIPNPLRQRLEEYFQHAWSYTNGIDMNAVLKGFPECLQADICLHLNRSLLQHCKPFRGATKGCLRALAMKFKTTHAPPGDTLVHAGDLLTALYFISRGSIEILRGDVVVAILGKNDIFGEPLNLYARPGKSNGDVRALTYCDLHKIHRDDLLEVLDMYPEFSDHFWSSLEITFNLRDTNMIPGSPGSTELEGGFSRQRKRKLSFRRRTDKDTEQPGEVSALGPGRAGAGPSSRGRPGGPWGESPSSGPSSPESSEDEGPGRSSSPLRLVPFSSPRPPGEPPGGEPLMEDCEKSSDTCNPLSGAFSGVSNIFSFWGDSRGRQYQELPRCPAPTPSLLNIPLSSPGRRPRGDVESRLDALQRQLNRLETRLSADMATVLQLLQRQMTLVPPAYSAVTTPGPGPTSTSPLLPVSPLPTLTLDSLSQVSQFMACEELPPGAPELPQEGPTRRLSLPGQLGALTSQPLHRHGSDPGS
For data set [3], the target named is T2, Voltage-gated inwardly rectifying potassium channel KCNH2 (Homo sapiens, UniProt Q12809). Described as §1. The settings on record: 10 µM.
T2 sequence (Q12809 whole entry): as above
A further data set addresses Dipeptidyl peptidase 9 (Homo sapiens, UniProt Q86TI2). The experiment in a line: Inhibition of DPP9.
A further data set addresses Dipeptidyl peptidase 4 (Homo sapiens, UniProt P27487). Nature of the data set: Inhibition of DPP4.
The target of another data set is Dipeptidyl peptidase 8 (Homo sapiens, UniProt Q6V1X1). The experiment in a line: Inhibition of DPP8.
Chain of Dipeptidyl peptidase 8 (Q6V1X1 whole entry): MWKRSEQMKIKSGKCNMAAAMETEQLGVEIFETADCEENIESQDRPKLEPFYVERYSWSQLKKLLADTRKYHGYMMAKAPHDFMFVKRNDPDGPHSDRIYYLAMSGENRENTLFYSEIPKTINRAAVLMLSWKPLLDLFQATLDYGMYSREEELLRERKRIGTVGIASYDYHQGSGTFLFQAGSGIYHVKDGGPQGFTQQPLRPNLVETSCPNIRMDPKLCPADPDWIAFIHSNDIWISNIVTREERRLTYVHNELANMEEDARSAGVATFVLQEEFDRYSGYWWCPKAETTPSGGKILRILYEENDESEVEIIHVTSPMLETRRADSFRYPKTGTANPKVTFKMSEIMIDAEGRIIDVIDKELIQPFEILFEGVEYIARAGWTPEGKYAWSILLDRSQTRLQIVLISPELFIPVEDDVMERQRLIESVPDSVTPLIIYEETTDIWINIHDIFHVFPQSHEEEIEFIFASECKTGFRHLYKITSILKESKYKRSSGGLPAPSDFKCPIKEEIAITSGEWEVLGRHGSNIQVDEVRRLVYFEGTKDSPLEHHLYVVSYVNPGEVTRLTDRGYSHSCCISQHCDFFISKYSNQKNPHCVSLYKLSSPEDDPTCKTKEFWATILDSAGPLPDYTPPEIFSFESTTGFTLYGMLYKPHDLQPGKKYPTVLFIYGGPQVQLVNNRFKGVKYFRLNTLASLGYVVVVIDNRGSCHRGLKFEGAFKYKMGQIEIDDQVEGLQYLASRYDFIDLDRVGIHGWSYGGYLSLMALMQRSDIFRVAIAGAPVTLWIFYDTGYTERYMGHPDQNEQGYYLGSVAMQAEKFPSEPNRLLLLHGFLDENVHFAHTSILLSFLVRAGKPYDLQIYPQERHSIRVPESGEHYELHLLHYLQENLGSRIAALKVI
The next data set deals with Cytochrome P450 2C19 (Homo sapiens, UniProt P33261). The experiment in a line: Inhibition of CYP2C19. Type of data set: ADME.
Chain of Cytochrome P450 2C19 (P33261 whole entry): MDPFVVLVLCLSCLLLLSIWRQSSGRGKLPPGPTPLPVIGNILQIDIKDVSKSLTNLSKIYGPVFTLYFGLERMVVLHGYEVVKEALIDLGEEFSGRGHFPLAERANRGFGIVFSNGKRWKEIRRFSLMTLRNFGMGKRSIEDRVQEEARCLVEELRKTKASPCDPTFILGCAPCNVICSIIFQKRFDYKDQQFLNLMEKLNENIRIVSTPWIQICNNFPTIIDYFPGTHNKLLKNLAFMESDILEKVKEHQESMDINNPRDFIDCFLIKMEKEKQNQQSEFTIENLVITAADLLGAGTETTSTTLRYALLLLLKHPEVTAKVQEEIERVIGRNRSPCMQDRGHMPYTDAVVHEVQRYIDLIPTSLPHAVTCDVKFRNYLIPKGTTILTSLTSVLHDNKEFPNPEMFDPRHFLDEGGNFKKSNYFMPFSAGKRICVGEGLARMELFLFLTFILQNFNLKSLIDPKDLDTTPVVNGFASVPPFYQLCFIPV
Data set [4] has as its target T1, Cytochrome P450 3A4. The experiment in a line: Inhibition of CYP3A4 in presence of the substrate 7-bezyloxy resorufin. Type of data set: ADME.
Data set [5] concerns the target T3, Nuclear receptor subfamily 1 group I member 2 (Homo sapiens, UniProt O75469).
T3 sequence (O75469 whole entry): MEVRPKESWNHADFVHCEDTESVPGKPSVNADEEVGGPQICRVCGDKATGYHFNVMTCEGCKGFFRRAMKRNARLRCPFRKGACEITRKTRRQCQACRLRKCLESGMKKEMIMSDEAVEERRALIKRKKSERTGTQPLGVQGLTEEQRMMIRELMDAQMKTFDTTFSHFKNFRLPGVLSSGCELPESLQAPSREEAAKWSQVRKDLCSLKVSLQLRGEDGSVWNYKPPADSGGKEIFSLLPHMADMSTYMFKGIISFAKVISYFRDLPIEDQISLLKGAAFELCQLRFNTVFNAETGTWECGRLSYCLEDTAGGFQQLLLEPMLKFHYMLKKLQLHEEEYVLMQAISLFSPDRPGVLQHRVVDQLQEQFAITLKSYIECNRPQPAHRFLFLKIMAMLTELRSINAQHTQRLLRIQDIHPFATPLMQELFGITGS
Nature of the data set: Inhibition of PXR.

A short description of data set [6]: Cmax in rat at 10 umol/kg. The class given is ADME, organism-based. Also noted: dose 10 umol/kg. The settings on record: in vivo.
The nature of data set [7]: Tmax in rat at 10 umol/kg. The class given is ADME, organism-based. To be noted: in vivo.
Data set [8] concerns the target T1, Cytochrome P450 3A4. Nature of the data set: Inhibition of CYP3A4. Type of data set: ADME.
Data set [9] has as its target T2, Voltage-gated inwardly rectifying potassium channel KCNH2. The experiment in a line: Inhibition of human ERG by flux assay.
The target is the same in data set [10].
A short description of data set [11]: Oral availability in rat. To be noted: in vivo. Type of data set: ADME, organism-based.
Data set [12] is described as follows: Half life in rat. The class given is ADME, organism-based. The settings on record: in vivo.

Values joined by “and” are separate entries in the source; they are usually repeats but may differ in a detail not shown here. Equal values may be shown once. Where only a bound is given, the exact number is not on record here.

Chain of Dipeptidyl peptidase 4 (P27487 whole entry): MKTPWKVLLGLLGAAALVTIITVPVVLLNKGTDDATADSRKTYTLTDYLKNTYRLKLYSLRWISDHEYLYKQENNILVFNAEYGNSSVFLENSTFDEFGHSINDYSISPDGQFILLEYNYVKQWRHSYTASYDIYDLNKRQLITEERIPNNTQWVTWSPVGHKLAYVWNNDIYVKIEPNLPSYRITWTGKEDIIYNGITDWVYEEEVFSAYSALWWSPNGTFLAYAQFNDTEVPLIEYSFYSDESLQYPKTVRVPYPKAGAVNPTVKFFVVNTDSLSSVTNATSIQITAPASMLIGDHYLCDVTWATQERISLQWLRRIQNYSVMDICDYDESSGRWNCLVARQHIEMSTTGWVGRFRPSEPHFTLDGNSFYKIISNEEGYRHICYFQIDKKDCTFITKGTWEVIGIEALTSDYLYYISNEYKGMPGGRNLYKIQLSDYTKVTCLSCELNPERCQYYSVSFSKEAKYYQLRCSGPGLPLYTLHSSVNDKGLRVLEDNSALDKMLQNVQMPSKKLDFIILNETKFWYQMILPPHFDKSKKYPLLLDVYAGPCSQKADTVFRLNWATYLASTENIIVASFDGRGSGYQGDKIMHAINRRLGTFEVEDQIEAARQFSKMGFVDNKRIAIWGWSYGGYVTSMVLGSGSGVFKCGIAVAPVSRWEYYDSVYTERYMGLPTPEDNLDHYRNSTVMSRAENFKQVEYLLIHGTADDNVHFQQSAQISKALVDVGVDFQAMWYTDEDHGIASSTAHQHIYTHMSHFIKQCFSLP
T1 sequence (P08684 whole entry): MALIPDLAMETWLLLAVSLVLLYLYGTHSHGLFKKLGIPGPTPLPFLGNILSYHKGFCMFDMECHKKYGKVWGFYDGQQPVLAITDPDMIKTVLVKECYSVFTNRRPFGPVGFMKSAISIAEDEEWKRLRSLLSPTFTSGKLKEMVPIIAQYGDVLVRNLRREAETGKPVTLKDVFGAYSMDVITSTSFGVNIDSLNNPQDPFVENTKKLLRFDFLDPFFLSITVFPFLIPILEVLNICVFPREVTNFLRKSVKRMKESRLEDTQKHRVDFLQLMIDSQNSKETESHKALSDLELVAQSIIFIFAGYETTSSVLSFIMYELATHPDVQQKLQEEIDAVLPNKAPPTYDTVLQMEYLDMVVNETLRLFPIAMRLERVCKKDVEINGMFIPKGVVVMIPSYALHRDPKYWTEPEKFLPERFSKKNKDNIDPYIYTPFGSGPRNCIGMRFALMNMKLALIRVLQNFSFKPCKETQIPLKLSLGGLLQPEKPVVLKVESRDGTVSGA

The term IC50 denotes the concentration that gives 50% inhibition. At Cytochrome P450 3A4 [1], `Cc1nc2c(c(-c3ccc(Cl)cc3Cl)c1CN)CN(CC(=O)N(C)C)C2=O` (single isomer, unassigned; atropisomer) displayed a half-maximal inhibitory concentration (IC50) greater than 17000 nM.

Compound `Cc1nc2c(c(-c3ccc(Cl)cc3Cl)c1CN)CN(CC(=O)N1CCC(C(N)=O)CC1)C2=O` (single isomer, unassigned; atropisomer) had an IC50 against Cytochrome P450 3A4 [1] greater than 17000 nM.

As a reminder, the inhibition is the share of the control response that was lost under treatment. Read a high inhibition as strong suppression. Consider `COc1ccc(N2Cc3c(nc(C)c(CN)c3-c3ccc(Cl)cc3Cl)C2=O)cc1` (single isomer, unassigned; atropisomer), for which the half-inhibitory concentration (IC50) at Cytochrome P450 3A4 [2] was 2500 nM. The compound further showed an inhibition at 10 µM on hERG (KCNH2) of 67%.

Regarding `Cc1nc2c(c(-c3ccc(Cl)cc3Cl)c1CN)CN(CC(=O)N1CCCC1)C2=O` (single isomer, unassigned; atropisomer), the IC50 against Cytochrome P450 3A4 [1] was greater than 17000 nM.

Take `Cc1nc2c(c(-c3ccc(Cl)cc3Cl)c1CN)CN(c1ccc(C#N)cc1)C2=O` (single isomer, unassigned; atropisomer): the IC50 at Cytochrome P450 3A4 [2] came to 670 nM. At hERG (KCNH2), this compound returned an inhibition at 10 µM of 97%.

For the compound `COc1ccccc1N1Cc2c(nc(C)c(CN)c2-c2ccc(Cl)cc2Cl)C1=O` (atropisomer R), on Cytochrome P450 3A4 [2], the IC50 is 1500 nM and 1300 nM and 2200 nM. Moreover, in [3], the INH is 67% and 68%. The compound also yielded an inhibition at 10 µM on hERG (KCNH2) of 63%.

What is called Ki is a dissociation constant, usually derived from enzyme kinetics or from competition with a known ligand. Read a high Ki as weaker binding. At Dipeptidyl peptidase 9, `COCCN1Cc2c(nc(C)c(CN)c2-c2ccc(Cl)cc2Cl)C1=O` (single isomer, unassigned; atropisomer) showed an inhibitory constant (Ki) greater than 30000 nM. Moreover, the concentration for half-maximal inhibition (IC50) at Cytochrome P450 3A4 [2] was 22000 nM.

As to `CCN(CC)C(=O)CN1Cc2c(nc(C)c(CN)c2-c2ccc(Cl)cc2Cl)C1=O`, the IC50 on Cytochrome P450 3A4 [1] is greater than 17000 nM.

Turning to `Cc1nc2c(c(-c3ccc(Cl)cc3Cl)c1CN)CN(CCO)C2=O` (single isomer, unassigned; atropisomer), the Ki at Dipeptidyl peptidase 4 was 9 nM; at Dipeptidyl peptidase 8 it was greater than 30000 nM; on Dipeptidyl peptidase 9 it was greater than 30000 nM. For the same compound, the half-inhibitory concentration (IC50) on Cytochrome P450 3A4 [2] was greater than 40000 nM.

For the compound `Cc1nc2c(c(-c3ccc(Cl)cc3Cl)c1CN)CN(c1ccc(F)cc1)C2=O` (single isomer, unassigned; atropisomer), the half-inhibitory concentration (IC50) on Cytochrome P450 3A4 [2] was 1400 nM. Also, on hERG (KCNH2), 10 µM produced 92% inhibition.

Turning to `COc1cc2c(cc1OC)-c1nc(N)c(CN)c(-c3ccc(Cl)cc3Cl)c1C2`, on Dipeptidyl peptidase 4, 7 nM corresponded to half-maximal inhibition (IC50).

The compound `Cc1nc2c(c(-c3ccc(Cl)cc3Cl)c1CN)CN(CC(=O)N1CCN(S(C)(=O)=O)CC1)C2=O` (single isomer, unassigned; atropisomer) showed a concentration for half-maximal inhibition (IC50) against Cytochrome P450 3A4 [1] greater than 17000 nM.

For orientation: EC20 means the concentration at which the effect reaches the 20% level. What is called Cmax is the maximum level reached in the sampled fluid or tissue. `Cc1nc2c(c(-c3ccc(Cl)cc3Cl)c1CN)CN(Cc1ccccc1)C2=O` (single isomer, unassigned; atropisomer): the IC50 against Cytochrome P450 2C19 was determined as 15000 nM; at Cytochrome P450 3A4 [2], 2800 nM; on Cytochrome P450 3A4 [4] it was 1400 nM. For the same compound, in [5], the EC20 was determined as 470 nM. For the same compound, the EC60 in data set [5] amounted to 1400 nM. The highest level in data set [6] (Cmax) was 500 nM.

As to `NCc1c(-c2ccc(Cl)cc2Cl)cc(-c2ccccc2)nc1N`, on Dipeptidyl peptidase 4, it took 920 nM to reach half-maximal inhibition (IC50).

Regarding `CC(=O)N1CCN(C(=O)CN2Cc3c(nc(C)c(CN)c3-c3ccc(Cl)cc3Cl)C2=O)CC1`, the 50% inhibitory concentration (IC50) against Cytochrome P450 3A4 [1] was greater than 17000 nM.

With `Cc1nc2c(c(-c3ccc(Cl)cc3Cl)c1CN)CN(Cc1ccccc1)C2`, the Ki on Dipeptidyl peptidase 8 and at Dipeptidyl peptidase 9 was greater than 30000 nM each time. The 50% inhibitory concentration (IC50) stood at 340 nM against Cytochrome P450 2C19, 770 nM at Cytochrome P450 3A4 [2] and 340 nM at Cytochrome P450 3A4 [4]. This compound registered an inhibition at 10 µM against hERG (KCNH2) of 67%. Further, the EC20 in data set [5] stood at 1100 nM. Also, the EC60 in data set [5] is 3300 nM. Moreover, the Cmax in [6] stood at 76 nM.

The Tmax is the time at which the peak concentration occurs. In the case of `CNC(=O)CN1Cc2c(nc(C)c(CN)c2-c2ccc(Cl)cc2Cl)C1=O` (single isomer, unassigned; atropisomer), in [5], the 20% effect concentration (EC20) is greater than 50000 nM and the EC60 is greater than 50000 nM. In data set [6], this compound displayed a Cmax of 32 nM. This compound registered an IC50 at Cytochrome P450 3A4 [1] greater than 17000 nM. The Tmax in data set [7] was 0.417 h.

Consider `Cc1ccc(N2Cc3c(nc(C)c(CN)c3-c3ccc(Cl)cc3Cl)C2=O)cc1` (single isomer, unassigned; atropisomer), for which the half-inhibitory concentration (IC50) at Cytochrome P450 3A4 [2] was determined as 270 nM. At hERG (KCNH2), this compound came in with an inhibition at 10 µM of 84%.

Compound `Cc1nc2c(c(-c3ccc(Cl)cc3Cl)c1CN)CN(CC(=O)Nc1ccnn1C)C2=O` returned an IC50 on Cytochrome P450 3A4 [1] greater than 17000 nM.

`Cc1nc2c(c(-c3ccc(Cl)cc3Cl)c1CN)CN(CC(=O)O)C2=O` (single isomer, unassigned; atropisomer): on Cytochrome P450 3A4 [2], the half-inhibitory concentration (IC50) is greater than 40000 nM.

As to `Cc1nc2c(c(-c3ccc(Cl)cc3Cl)c1CN)CN(C)C2=O` (single isomer, unassigned; atropisomer), the values for the Ki on Dipeptidyl peptidase 4 and on Dipeptidyl peptidase 8 were 29 nM and greater than 30000 nM, respectively. Also, on Cytochrome P450 3A4 [2], the IC50 was greater than 40000 nM.

Regarding `Cc1nc2c(c(-c3ccc(Cl)cc3Cl)c1CN)CNC2=O` (single isomer, unassigned; atropisomer), the Ki on Dipeptidyl peptidase 8 and at Dipeptidyl peptidase 9 was greater than 30000 nM each time. For the same compound, the IC50 at Cytochrome P450 3A4 [2] was greater than 40000 nM. In addition, 10 µM produced 68% inhibition against hERG (KCNH2). Also, the “inhibition (INH)” value at Cytochrome P450 3A4 [8] is “Not Active”.

Compound `Cc1nc2c(c(-c3ccc(Cl)cc3Cl)c1CN)CN(CC(=O)N1CCOCC1)C2=O` (single isomer, unassigned; atropisomer) registered a 50% inhibitory concentration (IC50) at Cytochrome P450 3A4 [1] greater than 17000 nM.

Regarding `Cc1nc2c(c(-c3ccc(Cl)cc3Cl)c1CN)CN(c1ccc(Cl)cc1)C2=O` (single isomer, unassigned; atropisomer), the half-inhibitory concentration (IC50) on Cytochrome P450 3A4 [2] worked out at 390 nM. Also, the inhibition at 10 µM on hERG (KCNH2) was 82%.

For `Cc1nc2c(c(-c3ccc(Cl)cc3Cl)c1CN)CN(CC(N)=O)C2=O` (single isomer, unassigned; atropisomer), the IC50 on Cytochrome P450 3A4 [1] is greater than 17000 nM.

As for `Cc1nc2c(c(-c3ccc(Cl)cc3Cl)c1CN)CN(CC(=O)N1CCN(C)CC1)C2=O` (atropisomer, axis not shown), the inhibition constant (Ki) at Dipeptidyl peptidase 4 is 0.67 nM; on Dipeptidyl peptidase 9, greater than 10000 nM. Also, on Cytochrome P450 3A4 [1], the IC50 was greater than 17000 nM.

`Cc1nc2cn(Cc3ccccc3)cc2c(-c2ccc(Cl)cc2Cl)c1CN`: the 50% inhibitory concentration (IC50) was found to be 950 nM at Cytochrome P450 2C19, 1100 nM at Cytochrome P450 3A4 [2], 730 nM at Cytochrome P450 3A4 [4] and 14000 nM in data set [9]. Also, the 20% effect concentration (EC20) in data set [5] came out at 1900 nM. Further, the EC60 in [5] is greater than 5600 nM.

Turning to `Cc1nc2c(c(-c3ccc(Cl)cc3Cl)c1CN)CN(CC(=O)NCc1cccnc1)C2=O`, the values for the half-inhibitory concentration (IC50) (against Cytochrome P450 3A4 [1]; in data set [10]) were 7000 nM and 80000 nM, respectively.

The bioavailability is dose-corrected exposure relative to a reference, in per cent. A higher bioavailability goes with much systemic uptake. As a reminder, the half-life is the time needed for the level to fall by half in the phase considered. As for `Cc1nc2c(c(-c3ccc(Cl)cc3Cl)c1CN)CN(c1ccccc1)C2=O` (single isomer, unassigned; atropisomer), the concentration for half-maximal inhibition (IC50) at Cytochrome P450 3A4 [2] was found to be 1200 nM. On hERG (KCNH2), this compound yielded an inhibition at 10 µM of 69%. Besides, the bioavailability in data set [11] was determined as 78%. This compound had a half-life in [12] of 4.4 h.

Take `COC(=O)CN1Cc2c(nc(C)c(CN)c2-c2ccc(Cl)cc2Cl)C1=O` (single isomer, unassigned; atropisomer): on Cytochrome P450 3A4 [2], the IC50 came out at 17000 nM.
